In one data set the target is T1, Src (Homo sapiens, UniProt P12931).
T1 construct: host or cells: Sf9 insect cells
Description: Src protein tyrosine kinase inhibition (ELISA of Poly[Glu:Tyr-P]). Type of data set: biochemical. The note with it: Src, at 10 µM; read-out: % Inhibition. The protocol:
Src protein tyrosine kinase activity was assessed in human recombinant insect Sf9 cells using as a substrate Poly(Glu:Tyr) at 10 µg/mL with preincubation and incubation times of 15 and 5 min, respectively, at 22°C in 50 mM HEPES, pH 7.4, 1 mM DTT, 20 mM MgCl2 and 0.2 mM Na3VO4. An ELISA quantitation method of Poly[Glu:Tyr-P] was employed (Farley, K et al. Anal Biochem, 1992, 203, 151-157). Table 4. Inhibition of Src at 10 µM
Background: An ELISA detects its analyte on a solid surface through an enzyme-linked reagent.

Another data set concerns tumor brain U-87 MG. Description: Tumor cell proliferation assay (alamarBlue). It counts as cell-based. The note with it: Homo sapiens; tumor brain U-87 MG; read-out: IC50. The procedure:
(§1) Changes in cell proliferation were detected based on the ability of viable cells to cause alamarBlue® to change its oxidized (non-fluorescent, blue) to a reduced (fluorescent, red) form. The alamarBlue® reaction allows the quantification of cell proliferation and examination of the metabolic activity of viable cells. Test substances were examined for activity on the proliferation of human or murine tumor cell lines at assay concentrations from 0.01 to 100 µM.
(In general: Resazurin is reduced to fluorescent resorufin, in cell work by metabolically active cells.)

The test system of a further data set is tumor breast MCF-7. Kind of data set: Tumor cell proliferation assay (alamarBlue). It counts as cell-based. The note with it: Homo sapiens, MCF7; tumor breast MCF-7; read-out: IC50. The procedure:
as §1

The subject of the next data set is tumor breast MDA-MB-231. Description: Tumor cell proliferation assay (alamarBlue). It counts as cell-based. The conditions noted are these: Homo sapiens; tumor breast MDA-MB-231; read-out: IC50. The protocol:
as §1

In a further data set the test system is tumor breast T-47D. Description: Tumor cell proliferation assay (alamarBlue). It counts as cell-based. The conditions noted are these: Homo sapiens, T47D; tumor breast T-47D; read-out: IC50. The protocol:
as §1

In a further data set the test system is tumor colon HCT-116. Kind of data set: Tumor cell proliferation assay (alamarBlue). It counts as cell-based. The note with it: Homo sapiens; tumor colon HCT-116; read-out: IC50. The protocol: as §1
In a further data set the test system is tumor leukaemia K562. Description: Tumor cell proliferation assay (alamarBlue). Type of data set: cell-based. The conditions noted are these: Homo sapiens; tumor leukaemia K562; read-out: IC50. The procedure: as §1
For another data set, the system named is tumor liver Hep 3B. Description: Tumor cell proliferation assay (alamarBlue). Type of data set: cell-based. The conditions noted are these: Homo sapiens, Hep3B; tumor liver Hep 3B; read-out: IC50. The procedure: as §1
A further data set concerns tumor liver HepG2. Description: Tumor cell proliferation assay (alamarBlue). Type of data set: cell-based. The conditions noted are these: Homo sapiens; tumor liver HepG2; read-out: IC50. The procedure:
as §1

The next data set relates to tumor lung A549. Kind of data set: Tumor cell proliferation assay (alamarBlue). The note with it: Homo sapiens; tumor lung A549; read-out: IC50. Type of data set: cell-based. The procedure: as §1
A further data set relates to tumor ovary OVCAR-3. Description: Tumor cell proliferation assay (alamarBlue). It counts as cell-based. The note with it: Homo sapiens; tumor ovary OVCAR-3; read-out: IC50. The procedure: as §1
The next data set relates to tumor prostate LNCaP-FGC. Description: Tumor cell proliferation assay (alamarBlue). It counts as cell-based. The conditions noted are these: Homo sapiens; tumor prostate LNCaP-FGC; read-out: IC50. The procedure:
as §1

In a further data set the test system is tumor melanoma B16-FO. Description: Tumor cell proliferation assay (alamarBlue). Type of data set: cell-based, murine. The conditions noted are these: Mus musculus; tumor melanoma B16-FO; read-out: IC50. The protocol: as §1
Data set [1] can be described thus: Maximum Tolerated Dose after acute administration. The note with it: mouse, in vivo, ip, mice. The protocol:
The Maximum Tolerated Dose (MTD) in mice was determined for selected compounds. The protocol of the studies was in accordance with the standard guidelines for drug development: • (htp://dtp.nci.nih.gov/branches/btb/acute tox.html). Table 10. Maximum Tolerated Doses in mice after acute i.p. administration

Data set [2] has as its system mice. Kind of data set: Formalin test (antinociceptive activity). Type of data set: in vivo. The procedure:
The chemical irritant formalin test is used as a chronic pain model in animals. The s.c. administration of formalin to the paw of a mouse produces a biphasic nociceptive behavioral response, an early response (0-5 min after injection) and a late response (20-30 min after injection) (Hunskaar, S., Fasmer, O.B., Hole, K. Formalin test in mice, a useful technique for evaluating mild analgesics. J Neurosci Methods, 1985 ;14(1):69-76).
Aspirine and paracetamol are included as external active references in early and late response. Table 12. Early and late response inhibition in the formalin test.

Data set [3] deals with mice. Kind of data set: Hot plate test (analgesic activity). It counts as in vivo. The note with it: 10 and 30 mg/kg i.p. The procedure:
The hot plate test was used as an animal model of thermally-induced pain. The inhibitory activity measured on the time licking and biting induced by temperature (30 sec max at 55°C) indicates analgesic effect. […] Table 13. Analgesic activity of example 1 in the hot plate test
A general note: Hot-plate and tail-flick tests time the reaction to a heat stimulus.

Data set [4] has as its target T2, Gonadotrophin-releasing hormone receptors (GnRH, LH-RH)R (Homo sapiens, UniProt P30968).
T2 construct: expressed in transfected cells; host or cells: Chem-1 cells
T2 sequence (P30968 1-328): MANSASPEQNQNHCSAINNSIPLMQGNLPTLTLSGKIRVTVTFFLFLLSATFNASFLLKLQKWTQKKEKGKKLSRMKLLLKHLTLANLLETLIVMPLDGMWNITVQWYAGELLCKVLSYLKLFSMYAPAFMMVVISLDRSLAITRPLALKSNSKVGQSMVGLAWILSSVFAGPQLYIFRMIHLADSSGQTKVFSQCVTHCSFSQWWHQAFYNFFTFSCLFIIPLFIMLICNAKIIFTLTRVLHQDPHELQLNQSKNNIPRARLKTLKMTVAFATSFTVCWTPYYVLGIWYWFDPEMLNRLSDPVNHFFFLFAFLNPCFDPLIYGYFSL
Kind of data set: GnRH radioligand binding assay. The conditions noted are these: GnRH radioligand binding, 10 µM; read-out: % Inhibition at 10 µM. From the text: Gonadotrophin-releasing hormone receptors (GnRH, LH-RH)R are a family of G protein-coupled receptors for GnRH, which promotes the secretion of luteinizing hormone (LH) and follicle-stimulating hormone (FSH). The activation of this receptor promotes, through estrogen receptors (ER) located in the cytosol, an increase in gene transcription and activation of tumor suppressor genes, DNA repair, cell division and cell proliferation. GnRH agonists are useful in breast, prostate and ovarian cancer, endometriosis, melanoma, rheumatoid arthritis and Alzheimer's disease. Table 17 presents the results from radioligand binding studies for GnRH for selected compounds using human recombinant Chem-1 cells (Halmos G, Schally AV, Pinski J, Vadillo-Buenfill M, Groot K. Down regulation of pituitary receptors for luteinizing hormone-releasing hormone (LH-RH) in rats by LH-RH antagonist Cetrorelix. Prco Natl Acad Sci USA 1996;93(6):2398-2402). The specific and non specific ligands used were [^125l] [D-Trp^6]-LH-RH (0.05 nM) and [D-Trp^6]-LH-RH ([…]) and after 60 min of incubation at 25°C in a 50 mM HEPES, pH 7.5, 5 mM MgCl2, 1 mM CaCl2, and 0.2% BSA the activity was measured by radioligand binding. Table 17. GnRH radioligand binding assay

In data set [5] the test system is mice. The conditions noted are these: i.p. in mice, comparative antineoplastic agents; cited from earlier work.
In another data set the target is T3, NET (Homo sapiens, UniProt P23975).
T3 construct: expressed in transfected cells; host or cells: CHO cells
Description: Norepinephrine transporter binding ([3H]nisoxetine). The protocol:
(§2) Serotonin transporter (SERT) inhibitors increase extracellular concentrations of serotonin (5-HT) and amplify signals sent by serotonin neurons. Agents that block SERT have been studied for the treatment of several diseases including depression and anxiety. Inhibitors of monoamine transporters have been tested for NET (Pacholczyk, T. et al. Nature, 1991, 350, 350-354) and SERT (Tatsumi, M. et al. Eur J Pharmacol, 1999, 368, 277-283). Norepinephrine transport was assessed in human recombinant CHO cells using [^3H]nisoxetine as a ligand at 1 nM after 60 min of incubation at 22°C, and a scintillation method as a method of detection. Serotonine transport was assessed in human recombinant CHO cells using [^3H]imipramine as a ligand at 2 nM after 60 min of incubation at 22°C, and a scintillation counting as a method of detection.

The next data set relates to NE Uptake. Description: Norepinephrine uptake inhibition. It counts as biochemical.
The next data set addresses T4, SERT (Homo sapiens, UniProt P31645).
T4 construct: expressed in transfected cells; host or cells: CHO cells
Kind of data set: Serotonin transporter binding ([3H]imipramine). The procedure: as §2

A further data set deals with 5-HT Uptake. Kind of data set: Serotonin uptake inhibition in brain synaptosomes. Type of data set: biochemical, rat. The protocol: Inhibition of serotonin uptake has been tested in rat brain synaptosomes using [^3H]serotonin (0.2 µCi/ml) after 15 min of incubation at 37°C and measuring the incorporation of [^3H]serotonin into synaptosomes by scintillation counting (Perovic, S. and Muller, W.E.G. Arzneim-Forsch. Drug Res., 1995, 45, 1145-1148).

The next data set concerns the target T5, 5-HT2A receptor (Homo sapiens, UniProt P28223).
T5 construct: expressed in transfected cells; host or cells: HEK-293 cells
Description: 5-HT2A receptor binding ([3H]ketanserin). The conditions noted are these: 5-HT2A binding. The protocol:
The 5-HT2A receptor belongs to the G-protein-coupled receptor (GPCR) target class linked to anxiety and depression. Using human recombinant HEK-293 cells, the binding of compounds of formula (I) to this receptor was determined. The ligand used was [^3H]ketanserin at 0.5 nM and the quantification of the activity was assessed by scintillation counting after 60 min at 22°C (Bonhaus, et al. Br J Pharmacol, 1995, 115, 622-628). Table 16. Inhibition of 5-HT2A binding

As a reminder, the inhibition is the relative decrease from the control value, in per cent. For orientation: IC50 means the concentration that gives 50% inhibition.

Counter-ions that a name gives are not always drawn.

T5 sequence (P28223 whole entry): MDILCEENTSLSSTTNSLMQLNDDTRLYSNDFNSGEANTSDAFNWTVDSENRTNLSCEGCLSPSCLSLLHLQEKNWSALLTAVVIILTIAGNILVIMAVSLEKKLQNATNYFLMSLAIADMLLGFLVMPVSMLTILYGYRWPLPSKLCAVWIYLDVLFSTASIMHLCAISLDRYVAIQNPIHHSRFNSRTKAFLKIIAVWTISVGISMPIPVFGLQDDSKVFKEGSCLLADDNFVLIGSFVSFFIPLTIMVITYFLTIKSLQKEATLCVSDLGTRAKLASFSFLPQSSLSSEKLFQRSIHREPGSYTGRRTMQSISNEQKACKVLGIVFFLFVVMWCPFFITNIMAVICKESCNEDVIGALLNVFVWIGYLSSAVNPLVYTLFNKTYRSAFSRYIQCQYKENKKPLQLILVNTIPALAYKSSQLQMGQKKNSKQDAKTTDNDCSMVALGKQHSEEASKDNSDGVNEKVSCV
T3 sequence (P23975 whole entry): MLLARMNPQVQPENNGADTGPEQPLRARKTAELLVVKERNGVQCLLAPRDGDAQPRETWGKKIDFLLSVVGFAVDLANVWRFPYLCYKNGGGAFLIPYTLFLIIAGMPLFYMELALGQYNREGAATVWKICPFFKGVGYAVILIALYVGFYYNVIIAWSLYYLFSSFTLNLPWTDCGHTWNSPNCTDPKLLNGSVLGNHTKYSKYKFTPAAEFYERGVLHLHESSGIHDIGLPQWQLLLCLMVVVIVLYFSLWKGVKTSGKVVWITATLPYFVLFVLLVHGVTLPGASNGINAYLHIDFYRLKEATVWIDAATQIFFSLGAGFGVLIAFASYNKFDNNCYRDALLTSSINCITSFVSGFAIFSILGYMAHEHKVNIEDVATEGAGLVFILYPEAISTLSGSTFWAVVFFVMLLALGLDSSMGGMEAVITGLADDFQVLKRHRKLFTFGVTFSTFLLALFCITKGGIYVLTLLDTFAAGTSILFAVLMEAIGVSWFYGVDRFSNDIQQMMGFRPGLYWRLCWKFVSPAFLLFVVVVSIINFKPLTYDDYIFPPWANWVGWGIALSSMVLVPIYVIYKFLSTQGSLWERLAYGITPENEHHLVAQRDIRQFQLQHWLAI
T4 sequence (P31645 whole entry): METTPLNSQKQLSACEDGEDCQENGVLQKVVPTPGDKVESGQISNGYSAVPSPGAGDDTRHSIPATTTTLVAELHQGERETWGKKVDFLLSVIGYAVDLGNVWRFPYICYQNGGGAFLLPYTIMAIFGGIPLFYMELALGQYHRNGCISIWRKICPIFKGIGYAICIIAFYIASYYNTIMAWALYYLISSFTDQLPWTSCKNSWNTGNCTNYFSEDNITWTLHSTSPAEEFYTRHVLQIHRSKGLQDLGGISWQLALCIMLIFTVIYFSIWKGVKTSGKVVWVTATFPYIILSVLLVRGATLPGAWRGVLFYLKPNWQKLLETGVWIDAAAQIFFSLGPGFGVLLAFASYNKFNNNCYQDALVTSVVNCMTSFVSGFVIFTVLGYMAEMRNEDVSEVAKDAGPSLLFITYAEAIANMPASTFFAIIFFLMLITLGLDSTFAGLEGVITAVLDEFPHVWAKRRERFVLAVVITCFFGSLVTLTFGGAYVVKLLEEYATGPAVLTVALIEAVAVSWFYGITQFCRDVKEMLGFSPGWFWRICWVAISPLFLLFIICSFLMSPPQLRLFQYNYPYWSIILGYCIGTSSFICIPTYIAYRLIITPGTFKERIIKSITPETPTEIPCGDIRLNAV
T1 sequence (P12931 whole entry): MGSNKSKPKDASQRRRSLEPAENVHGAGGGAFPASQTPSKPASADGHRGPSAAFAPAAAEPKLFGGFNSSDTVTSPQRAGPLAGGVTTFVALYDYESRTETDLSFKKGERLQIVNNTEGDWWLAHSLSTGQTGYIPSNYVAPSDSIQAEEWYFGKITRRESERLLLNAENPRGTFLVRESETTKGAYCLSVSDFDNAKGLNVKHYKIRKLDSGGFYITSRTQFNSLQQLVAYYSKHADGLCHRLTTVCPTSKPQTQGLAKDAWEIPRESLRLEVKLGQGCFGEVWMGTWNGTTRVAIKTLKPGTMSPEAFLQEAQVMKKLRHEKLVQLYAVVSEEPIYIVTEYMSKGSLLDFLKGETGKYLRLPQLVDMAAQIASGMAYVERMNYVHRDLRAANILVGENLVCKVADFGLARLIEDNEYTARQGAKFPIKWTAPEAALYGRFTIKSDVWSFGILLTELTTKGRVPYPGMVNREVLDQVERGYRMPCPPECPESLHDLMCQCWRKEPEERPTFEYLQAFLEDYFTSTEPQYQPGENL

Take `C=CCc1ccc(OC)c(-c2cc(CC=C)ccc2OC(CCNC)c2ccccc2)c1.Cl` (stereo not drawn) [Example 2, 5,5'-Diallyl-2-methoxy-2'-[3-(methylamino)-1-phenylpropoxy]biphenyl hydrochloride]: the inhibition at 10 µM at Src is 55%; in data set [4], 33%. Further, the IC50 was 2200 nM with tumor brain U-87 MG; 2600 nM in the data set with tumor breast MCF-7; 2100 nM with tumor breast MDA-MB-231; 12000 nM in the data set on tumor breast T-47D; 2100 nM in the data set with tumor colon HCT-116; 4200 nM in the data set with tumor leukaemia K562. The IC50 amounted to 3200 nM with tumor liver Hep 3B; 3600 nM in the data set with tumor liver HepG2; 1300 nM in the data set on tumor lung A549; 2300 nM in the data set with tumor ovary OVCAR-3; 1800 nM in the data set with tumor prostate LNCaP-FGC; 2300 nM in the data set on tumor melanoma B16-FO. The compound further had an MTD in data set [1] of 50 mg/kg. Also, the “antinociceptive activity in the formalin test” value in the data set with mice [2] (30 mg/kg i.p, early and late phases, potency similar to morphine 10 mg/kg i.p.) is given as “to a lesser extent”. The “antinociceptive activity in the formalin model” value with mice [2] (10 and 30 mg/kg i.p, late phase) is listed as “dose-dependent antinociceptive activity”. The “Early Response” value in the data set on mice [2] (formalin test, dose 30 mg/Kg i.p., early response 0-5 min) is “inactive”. In addition, the “Late Response” value in the data set on mice [2] (formalin test, dose 30 mg/Kg i.p., late response 20-30 min) is “active”. Moreover, in the data set on mice [3], the “antinociceptive activity in the hot plate test” value is on record as “Dose-dependent antinociceptive activity”.
For the compound `CC(=O)O[C@H]1C(=O)[C@@]2(C)[C@H]([C@H](OC(=O)c3ccccc3)[C@]3(O)C[C@H](OC(=O)[C@H](O)[C@@H](NC(=O)c4ccccc4)c4ccccc4)C(C)=C1C3(C)C)[C@]1(OC(C)=O)CO[C@@H]1C[C@@H]2O` [placlitaxel], the MTD in the data set with mice [5] was 20 to 50 mg/kg.
On to `C=CCc1ccc(OCC)c(-c2cc(CC=C)ccc2OC(CCNC)c2ccccc2)c1` (stereo not drawn) [Example 3, 5,5'-Diallyl-2-ethoxy-2'-[3-(methylamino)-1-phenylpropoxylbiphenyl hydrochloride], for which the inhibition at 5 µM at NET came out at 87%; at SERT it was 73%; on 5-HT2A receptor, 86%. Besides, the “% Inhibition (5.0 µM) NE Uptake” value with NE Uptake was 85%. For the same compound, in the data set with 5-HT Uptake, the “% Inhibition (5.0 µM) 5-HT Uptake” value is on record as 52%.
Regarding `N.N.[Cl][Pt][Cl]` [cisplatin], the MTD in the data set with mice [5] was 4 mg/kg.

(Values after EP2423181A1, “Multitarget substituted biphenyl diol derivatives” (PROUS INSTITUTE FOR BIOMEDICAL RESEARCH S.A., priority 2010, dated 2012).)
